This note sets out measurements from ChEMBL document CHEMBL2203260, “Riccardin C derivatives as anti-MRSA agents: structure-activity relationship of a series of hydroxylated bis(bibenzyl)s” (2012).

≈ marks a conversion by molar mass, not a printed value.

The subject of experiment [1] is Staphylococcus aureus. The experiment can be described thus: Antibacterial activity against methicillin-resistant Staphylococcus aureus OM481 by two-fold liquid microdilution method. The format is functional.
For experiment [2], the system named is Staphylococcus aureus. The experiment can be described thus: Antibacterial activity against methicillin-resistant Staphylococcus aureus OM584 by two-fold liquid microdilution method. It is filed as functional.

Regarding `COc1cc2ccc1-c1ccccc1CCc1ccc(cc1)Oc1cccc(c1)CC2`, the MIC in experiment [1] and in experiment [2] was above 100 µg/mL throughout.

Turning to `Oc1ccc2c(c1)CCc1ccc(cc1)Oc1cccc(c1)CCc1ccc-2cc1`, the figures for the minimum inhibitory concentration (MIC) in experiment [1] and in experiment [2] were 1.6 µg/mL (≈ 4.08 µM) and above 100 µg/mL, respectively.

With `Oc1ccc2c(c1)CCc1ccc(cc1)Oc1cc(ccc1O)CCc1ccc-2c(O)c1` [RICCARDI C], the minimal inhibitory concentration (MIC) in experiment [1] and in experiment [2] was 3.2 µg/mL (≈ 7.54 µM) in each case.

Take `Oc1ccc(-c2ccccc2O)cc1`: the minimum inhibitory concentration (MIC) in experiment [1] and in experiment [2] was above 100 µg/mL throughout.

As to `Oc1ccc2cc1Oc1ccc(cc1)CCc1ccccc1-c1ccc(cc1)CC2`, the MIC in experiment [1] and in experiment [2] was above 100 µg/mL each time.

With `Oc1ccc2c(c1)CCc1ccc(cc1O)Oc1cc(ccc1O)CCc1ccc-2c(O)c1`, the MIC in experiment [1] and in experiment [2] was 8 µg/mL (≈ 18.2 µM) throughout.

Take `Oc1ccc2cc1Oc1ccc(cc1)CCc1ccccc1-c1ccc(cc1O)CC2`: the MIC in experiment [1] and in experiment [2] was 3.2 µg/mL (≈ 7.83 µM) in each case.

As to `COc1ccc2cc1Oc1ccc(cc1)CCc1ccccc1-c1ccc(cc1)CC2`, the MIC in experiment [1] and in experiment [2] was above 100 µg/mL throughout.

Consider `Oc1cc2ccc1-c1ccccc1CCc1ccc(cc1)Oc1cccc(c1)CC2`, for which the minimum inhibitory concentration (MIC) in experiment [1] was 3.2 µg/mL (≈ 8.15 µM); in experiment [2], above 100 µg/mL.

Consider `Oc1ccc2c(c1)CCc1ccc(cc1)Oc1cc(ccc1O)CCc1ccc-2cc1`, for which the MIC in experiment [1] and in experiment [2] was 3.2 µg/mL (≈ 7.83 µM) in each case.

Turning to `Oc1ccc2c(c1)CCc1ccc(cc1)Oc1cccc(c1)CCc1ccc-2c(O)c1`, the MIC in experiment [1] and in experiment [2] was 3.2 µg/mL (≈ 7.83 µM) throughout.

For the compound `Oc1ccc2c(c1)CCc1ccc(c(O)c1)Oc1cc(ccc1O)CCc1ccc-2c(O)c1`, the minimal inhibitory concentration (MIC) in experiment [1] and in experiment [2] was 16 µg/mL (≈ 36.3 µM) in each case.

For `CC(=O)NC[C@H]1CN(c2ccc(N3CCOCC3)c(F)c2)C(=O)O1` [LINEZOLID], the MIC in experiment [1] and in experiment [2] was 1 µg/mL (≈ 2.96 µM) each time.

Consider `COc1ccc2c(c1)CCc1ccc(cc1)Oc1cccc(c1)CCc1ccc-2cc1`, for which the minimal inhibitory concentration (MIC) in experiment [1] and in experiment [2] was above 100 µg/mL in each case.

For `Oc1ccc(CCc2cccc(O)c2)cc1` [LUNULARIN], the minimal inhibitory concentration (MIC) in experiment [1] and in experiment [2] was above 100 µg/mL in each case.

For `Oc1ccccc1Oc1ccccc1`, the minimal inhibitory concentration (MIC) in experiment [1] and in experiment [2] was 6.25 µg/mL (≈ 33.6 µM) in each case.
